# Measurements published in patent US12152038B2, “Vasopressin receptor antagonists and products and methods related thereto” (Neumora Therapeutics, Inc., priority 2017, dated 2024).
# pIC50: −log10 of the molar value.
# Target: T1, human Arginine Vasopressin Receptor 1a (AVPR1a) (Homo sapiens, UniProt P37288)
# T1 construct: expressed in transfected cells; host or cells: CHO (CHO-AVPR1a, kept under G418 selection)
# Assay: Vasopressin V1a receptor antagonist assay (FLIPR calcium, CHO-AVPR1a cells)
# Assay type: cell-based
# Experimental: The purpose of this assay was to determine the inhibitory effect of synthesized compounds on the Vasopressin V1a receptor. The assay was performed in Chinese Hamster Ovary (CHO) cells expressing the human Arginine Vasopressin Receptor 1a (AVPR1a). Arginine Vasopressin (AVP) evokes an increase in intracellular calcium in CHO-AVPR1a cells which is measured in a fluorescence assay on the FLIPR^TETRA using calcium sensitive dyes. Test compounds were assessed for their ability to affect the magnitude of the response to AVP, with antagonists showing a concentration-dependent reduction in the AVP-mediated fluorescence. Compounds were tested in duplicate in a 10-point, 1:3 dilution series starting at a nominal concentration of 3 μM in the assay.
# CHO-AVPR1a cells were maintained in routine culture in T175 Flasks at 37° C., 5% CO2. The growth medium consists of Ham's F12 media supplemented with 10% v/v fetal bovine serum, 1× non-essential amino acids, and 0.4 mg/ml Geneticin G418.
# On day one, cells were harvested from T175 flasks when they are 80-90% confluent by first washing the cell monolayer with PBS and then dissociated using trypsin 0.05%/EDTA (3 mL for a T175 Flask). The flasks were incubated at room temperature until the cells detached. To the cell suspension, 10 ml of growth media was added and the cell density determined using the Vi-Cell automated cell counter. The cells were spun at 1000 rpm for 3 minutes, then the supernatant was carefully removed and discarded. The cell pellet was re-suspended at 6.0e^5 cells/ml in growth media. 25 μL of cells in growth media was dispensed into each well (15,000 cells per well) of a poly-D-lysine coated black, clear bottomed, 384-well plate. The plates were incubated at 37° C., 5% CO2 overnight.
# At the start of each assay day, the potency of AVP was assessed and an EC80 concentration determined for subsequent compound profiling. Assays were performed using a two-step addition protocol on the FLIPR^TETRA; first addition of 5 μl of control or test compound at 10× final in assay buffer with 15 min incubation at 37° C., 5% CO2 followed by 10 μl of AVP at 6× final concentration in assay buffer. Changes in fluorescence were monitored for 3 min after both additions on the FLIPR^TETRA using 470-495 nm excitation and 515-575 nm emission wavelengths. The assay buffer consisted of HBSS (+Ca/+Mg) supplemented with 20 mM HEPES, and for the preparation of the AVP agonist only, 0.1% w/v bovine serum albumin. The assay was initiated by the removal of growth media from the cells and replacement with 45 μl of Calcium-6 dye (Molecular Devices) prepared at 1× in assay buffer. Cells were loaded with dye for 60-90 min at 37° C., 5% CO2 before initiation of the FLIPR^TETRA protocol. […] For compound profiling, test compounds were first serially diluted in DMSO (10-point curve, 1:3 dilutions) then diluted 33.3-fold in assay buffer prior to addition to the dye loaded cells on the FLIPR^TETRA. At the end of the incubation period, 10 μl of AVP in assay buffer containing 0.1% BSA was added at the previously determined EC80 concentration.
# In-plate controls for the assay included balovaptan and PF-184563 concentration-response curves as reference V1a antagonists, and an AVP concentration-response curve to confirm the reproducibility of the EC80 used for the compound challenge.
# T1 sequence (P37288 whole entry): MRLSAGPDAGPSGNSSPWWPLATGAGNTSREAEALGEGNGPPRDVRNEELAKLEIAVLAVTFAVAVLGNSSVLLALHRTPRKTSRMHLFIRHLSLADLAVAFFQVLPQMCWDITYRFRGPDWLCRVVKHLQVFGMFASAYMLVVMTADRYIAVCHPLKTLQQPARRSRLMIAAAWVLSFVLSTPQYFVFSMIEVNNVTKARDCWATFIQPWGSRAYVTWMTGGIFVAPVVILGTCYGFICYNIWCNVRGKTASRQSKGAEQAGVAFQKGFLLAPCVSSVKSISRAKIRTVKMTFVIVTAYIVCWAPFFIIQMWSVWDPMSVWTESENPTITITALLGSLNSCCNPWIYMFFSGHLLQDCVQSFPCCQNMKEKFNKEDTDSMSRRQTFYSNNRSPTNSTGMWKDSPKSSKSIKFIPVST
row,SMILES,pIC50
1,O=C(N1CC2(C1)CN(c1ccncc1)C2)N1CCOc2cc(Cl)ccc21 [1-34],≤ 6.00
2,Cn1cc(N2CC3(CN(C(=O)N4CCOc5cc(Cl)ccc54)C3)C2)cn1 [1-11],≤ 6.00
3,O=C(N1CC2(C1)CN(c1ccnnc1)C2)N1CCOc2cc(Cl)ccc21 [1-25],≤ 6.00
4,CC1COc2cc(Cl)ccc2N1C(=O)N1CC2(C1)CN(c1ncccc1F)C2 (centres unmarked) [1-57],> 7.00
5,Cc1cc(F)cnc1N1CC2(CN(C(=O)N3CCOc4cc(Cl)ccc43)C2)C1 [1-52],> 7.00
6,CC1COc2cc(Cl)ccc2N1C(=O)N1CC2(C1)CN(c1cnccn1)C2 (centres unmarked) [1-58],> 7.00
7,"CC1COc2cc(F)ccc2N1C(=O)N1CC2(C1)CN(c1cccnn1)C2 (single isomer, unassigned) [1-62-A]",≤ 6.00
8,O=C(N1CC2(C1)CN(c1ccnc(OC(F)F)c1)C2)N1CCOc2cc(Cl)ccc21 [1-35],≤ 6.00
9,O=C(N1CC2(C1)CN(c1cncnc1)C2)N1CCOc2cc(Cl)ccc21 [1-17],6.30 to 7.00
10,O=C(N1CC2(C1)CN(c1ccc(F)cn1)C2)N1CCCS(=O)(=O)c2cc(Cl)ccc21 [1-75],≤ 6.00
11,CCC1COc2cc(Cl)ccc2N1C(=O)N1CC2(C1)CN(c1ccc(F)cn1)C2 (centres unmarked) [1-55],> 7.00
12,"CC1COc2cc(Cl)ccc2N1C(=O)N1CC2(C1)CN(c1ncccn1)C2 (single isomer, unassigned) [1-83-A]",6.30 to 7.00
13,N#Cc1ccc(N2CC3(CN(C(=O)N4CCOc5cc(Cl)ccc54)C3)C2)nc1 [1-16],6.30 to 7.00
14,O=C(N1CC2(C1)CN(c1cncc(F)c1)C2)N1CCOc2cc(Cl)ccc21 [1-7],6.30 to 7.00
15,Cc1nccnc1N1CC2(CN(C(=O)N3CCOc4cc(Cl)ccc43)C2)C1 [1-21],> 7.00
16,CC1COc2cc(F)ccc2N1C(=O)N1CC2(C1)CN(c1cccnn1)C2 (centres unmarked) [1-62],> 7.00
17,CN1Cc2cnc(N3CC4(CN(C(=O)N5CCOc6cc(Cl)ccc65)C4)C3)nc2C1 [1-28],≤ 6.00
18,O=C(N1CC2(C1)CN(c1n[nH]c3ccccc13)C2)N1CCOc2cc(Cl)ccc21 [1-82],> 7.00
19,"CC1COc2cc(F)ccc2N1C(=O)N1CC2(C1)CN(c1cccnn1)C2 (single isomer, unassigned) [1-62-B]",> 7.00
20,CC(C)(C)OC(=O)N1CC2(C1)CN(C(=O)N1CCOc3cc(Cl)ccc31)C2 [1-61],6.00 to 6.30
21,Cc1ncccc1N1CC2(CN(C(=O)N3CCOc4cc(Cl)ccc43)C2)C1 [1-9],6.00 to 6.30
22,O=C(N1CC2(C1)CN(c1ccc(F)cc1)C2)N1CCOc2cc(Cl)ccc21 [1-40],6.30 to 7.00
23,"CCC1COc2cc(Cl)ccc2N1C(=O)N1CC2(C1)CN(c1ccc(F)cn1)C2 (single isomer, unassigned) [1-55-A]",6.00 to 6.30
24,COc1cccnc1N1CC2(CN(C(=O)N3CCOc4cc(Cl)ccc43)C2)C1 [1-6],> 7.00
25,O=C(N1CC2(C1)CN(c1nccn3cncc13)C2)N1CCOc2cc(Cl)ccc21 [1-44],> 7.00
26,Cc1cc(N2CC3(CN(C(=O)N4CCOc5cc(Cl)ccc54)C3)C2)ccn1 [1-36],≤ 6.00

# Next, values leading:
row,pIC50,SMILES
1,> 7.00,"CCc1ccnc(N2CC3(CN(C(=O)N4c5ccc(Cl)cc5OCC4C)C3)C2)n1 (single isomer, unassigned) [18-5-B]"
2,≤ 6.00,"CC1COc2cc(F)ccc2N1C(=O)N1CC2(C1)CN(c1cc(C#N)ccn1)C2 (single isomer, unassigned) [20-3-A]"
3,≤ 6.00,O=C(N1CC2(CN(Cc3ccc(F)cn3)C2)C1)N1CCOc2cc(Cl)ccc21 [2-6]
4,6.30 to 7.00,"COc1ccnc(N2CC3(CN(C(=O)N4c5ccc(Cl)cc5OCC4C)C3)C2)c1 (single isomer, unassigned) [20-8-A]"
5,> 7.00,CN1CCN(C(=O)N2CC3(C2)CN(c2ccc(F)cn2)C3)c2ccc(F)cc21 [8-8]
6,6.30 to 7.00,CC1COc2cc(Cl)ccc2N1C(=O)N1CC2(C1)CN(c1ncc(C3CC3)cn1)C2 (centres unmarked) [21-7]
7,> 7.00,"O=C(N1CC2(C1)CN(c1ccc(F)cn1)C2)N1CCC(O)c2c1ccc(Cl)c2F (single isomer, unassigned) [13-5-A]"
8,≤ 6.00,"CCc1ccnc(N2CC3(CN(C(=O)N4c5ccc(Cl)cc5OCC4C)C3)C2)n1 (single isomer, unassigned) [18-5-A]"
9,6.00 to 6.30,"Cc1ccnc(N2CC3(CN(C(=O)N4c5ccc(Cl)cc5OCC4C)C3)C2)c1 (single isomer, unassigned) [20-11-A]"
10,6.30 to 7.00,O=C(N1CC2(C1)CN(c1ccc(F)cn1)C2)N1CCS(=O)(=O)c2cc(Cl)ccc21 [8-17]
11,> 7.00,"Cc1cnnc(N2CC3(CN(C(=O)N4CCOc5cc(Cl)ccc54)C3)C2)c1 [3-1, (7-chloro-2,3-dihydro-4H-benzo[b][1,4]oxazin-4-yl)(6-(5-methylpyridazin-3-yl)-2,6-diazaspiro[3.3]heptan-2-yl)methanone]"
12,≤ 6.00,O=C(N1CC2(C1)CN(c1ccc(F)cn1)C2)N1CCOc2ccncc21 [8-6]
13,6.30 to 7.00,"CC1COc2cc(F)c(F)cc2N1C(=O)N1CC2(C1)CN(c1ccc(F)cn1)C2 (single isomer, unassigned) [19-5-A]"
14,> 7.00,CC1COc2cc(Cl)ccc2N1C(=O)N1CC2(C1)CN(c1ncc(F)cn1)C2 (centres unmarked) [18-2]
15,≤ 6.00,"COc1ccnc(N2CC3(CN(C(=O)N4c5ccc(Cl)cc5OCC4C)C3)C2)n1 (single isomer, unassigned) [20-9-A]"
16,≤ 6.00,"CC1COc2cc(Cl)ccc2N1C(=O)N1CC2(C1)CN(c1nccc(C#N)n1)C2 (single isomer, unassigned) [20-16-A]"
17,> 7.00,"CC1CN(C(=O)N2CC3(C2)CN(c2ccc(F)cn2)C3)c2ccc(Cl)cc2O1 (single isomer, unassigned) [9-3-B]"
18,≤ 6.00,"Cc1ccnc(N2CC3(CN(C(=O)N4c5ccc(Cl)cc5OCC4C)C3)C2)n1 (single isomer, unassigned) [20-12-A]"
19,> 7.00,"CC1(O)CCN(C(=O)N2CC3(C2)CN(c2ccc(F)cn2)C3)c2ccc(Cl)cc21 (centres unmarked) [15-1, (6-chloro-4-hydroxy-4-methyl-3,4-dihydroquinolin-1(2H)-yl)(6-(5-fluoropyridin-2-yl)-2,6-diazaspiro[3.3]heptan-2-yl)methanone]"
20,> 7.00,O=C(N1CC2(C1)CN(c1ccc(F)cn1)C2)N1CCSc2cc(Cl)ccc21 [8-15]
21,6.30 to 7.00,CC1COc2cc(Cl)ccc2N1C(=O)N1CC2(C1)CN(c1cc(=O)n(C)cn1)C2 (centres unmarked) [20-14]
22,> 7.00,"O=C(N1CC2(C1)CN(c1ncccc1F)C2)N1CCC(O)c2cc(Cl)ccc21 (single isomer, unassigned) [13-4-A]"
23,> 7.00,"COC1CCN(C(=O)N2CC3(C2)CN(c2ccc(F)cn2)C3)c2ccc(Cl)cc21 (centres unmarked) [16-1, (6-chloro-4-methoxy-3,4-dihydroquinolin-1(2H)-yl)(6-(5-fluoropyridin-2-yl)-2,6-diazaspiro[3.3]heptan-2-yl)methanone]"
24,> 7.00,"CC1COc2cc(Cl)ccc2N1C(=O)N1CC2(C1)CN(c1nccc(C#N)n1)C2 (single isomer, unassigned) [20-16-B]"
25,> 7.00,O=C(N1CC2(C1)CN(c1ccccn1)C2)N1CCC(O)c2cc(Cl)ccc21 (centres unmarked) [13-2]
26,6.30 to 7.00,"COc1ccc(N2CC3(CN(C(=O)N4CCOc5cc(Cl)ccc54)C3)C2)cn1 [8-1, (7-chloro-2,3-dihydro-4H-benzo[b][1,4]oxazin-4-yl)(6-(6-methoxypyridin-3-yl)-2,6-diazaspiro[3.3]heptan-2-yl)methanone]"
27,> 7.00,"Cc1cnc(N2CC3(CN(C(=O)N4c5ccc(Cl)cc5OCC4C)C3)C2)cn1 (single isomer, unassigned) [20-5-A]"
